In patent publication US4689326A, “Process for controlling hyperlipidemia” (Research Corporation, priority 1985, dated 1987):
Where two headings read alike, the source gives them in different places.

Experiments:
Format in all cases: in vivo, CF1 male mice
serum triglycerides [1] = assay: Hypolipidemic Activity of Compounds 1 and 10-33, Example 13: serum triglycerides; conditions: Mus musculus, 384 h; 20 mg/kg/day ip, day 16, ± SD; read-out: Serum Triglyceride as a function of control, 16 Day
Experimental: (§1) Compounds 1 and 10-33, identified below in Table 11, were suspended by homogenation in a 1% aqueous solution of carboxymethylcellulose (CMC) such that a 0.2 ml dosage supplied a concentration of 20 mg/kg of the active compounds. The suspending agent, the 1% aqueous solution of CMC, was utilized as a control, applied in the same quantity, 0.2 ml. CF1 male mice, maintained in groups of six, were fed Wayne Blox [trademark] laboratory animal show ad libitum with water. The mice, which each weighed approximately 25 g, were administered the drugs interperitoneally at approximately the same time. On days 9 and 16 approximately […] of blood was taken from each of the animals by tail bleeding. After centrifugation to obtain serum, 25 microliter samples were assayed for total cholesterol utilizing the method of Ness et al. Serum triglyicerides were assayed, using a commercially available BioDynamics/bmc triglyiceride kit, on blood collected on the 16th day. By comparison to standards the milligram percent of cholesterol and milligram per deciliter concentration of triglicerides were calculated. Treated values were expressed as a percent of the level of the control animals plus or minus the standard deviation. The "T" values were obtained using the Student's "t" test.

serum cholesterol [2] = assay: Hypolipidemic Activity of Compounds 1 and 10-33, Example 13: serum cholesterol; conditions: Mus musculus, 20 mg/kg/day ip
Experimental: as §1

serum cholesterol [3] = assay: Testing of Normal Mice: serum cholesterol (modified Liebermann-Burchard), Example 7; conditions: Mus musculus, 150 mg/kg/day ip
Experimental: (§2) Suspensions of Compounds Nos. 1-9 were prepared wherein the compounds were suspended in an aqueous 1% carboxymethylcelluose solution, homogenized and administered to CF1 male mice, each weighing approximately 25 grams, intraperitoneally on a daily basis for 16 days. The dosage was, with the exception of one compound, 20 milligrams of the active compound per kilogram of mouse weight per day. On days 9 and 16 blood was obtained by tail vein bleeding. The blood serum was separated by centrifugation for three minutes. Serum cholesterol levels were determined by a modification of the Liebermann-Burchard reaction. Serum was also collected on day 16 and the triglycerides content was determined by a commercial kit, BioDynamics/bnc Single Vile Colorimetric Method 348201. Each compound was tested on a group of six mice.
(§3) In addition to the above-described treated mice, untreated control groups of six mice were similarly tested on days 9 and 14 or 16 to determine their serum cholesterol and triglycerides blood levels. Table 5 reports the percent control, based on the serum cholesterol and serum triglyceride levels of the treated mice compared to the untreated controls. Table 5 also includes the standard deviation indicating the level of confidence of these numbers.
(§4) Example 7 was repeated substituting clofibrate, a compound used in the prior art to lower serum cholesterol and serum triglyceride levels. The clofibrate was administered as a suspension in an aqueous 1% solution of carboxymethylcellulose. However, unlike the compounds of the present invention which were administered at a dosage of 20 mg/kg day, ip, this compound was administered at the elevated concentration of 150 mg/kg day, ip.

serum triglycerides [4] = assay: Testing of Normal Mice: serum triglycerides (BioDynamics kit), Example 7; conditions: Mus musculus, 384 h; 150 mg/kg/day ip, day 16, ± SD
Experimental: as §2, §3, §4

[5] = 216 h, day 9, ± SD, read-out: Serum Cholesterol as a function of control, 9 Day
[6] = 384 h, day 16, ± SD, read-out: Serum Cholesterol as a function of control, 16 Day

Structure (SMILES)	response vs control in vivo at 20 mg/kg (serum triglycerides [1])	response vs control in vivo at 20 mg/kg (serum cholesterol [2]; [5])	response vs control in vivo at 20 mg/kg (serum cholesterol [2]; [6])	response vs control in vivo at 150 mg/kg (serum cholesterol [3]; 216 h, day 9, ± SD, read-out: Serum Cholesterol Control, % Day 9)	response vs control in vivo at 150 mg/kg (serum cholesterol [3]; 384 h, day 16, ± SD, read-out: Serum Cholesterol Control, % Day 16)	response vs control in vivo at 150 mg/kg (serum triglycerides [4])
COc1ccccc1-n1c(=O)c2ccccc2c2ccccc2c1=O [Compound 19, N-(2-methoxy)-phenyldiphenimide]	68 ± 5%	80 ± 8%	67 ± 5%			
COc1cccc(-n2c(=O)c3ccccc3c3ccccc3c2=O)c1 [Compound 20, N-(3-methoxy)phenyldiphenimide]	72 ± 8%	84 ± 7%	74 ± 7%			
COc1ccc(-n2c(=O)c3ccccc3c3ccccc3c2=O)cc1 [Compound 21, N-(4-methoxy)-phenyldiphenimide]	74 ± 6%	91 ± 7%	84 ± 8%			
Cc1ccccc1-n1c(=O)c2ccccc2c2ccccc2c1=O [Compound 22, N-(2-methyl)-phenyldiphenimide]	65 ± 6%	78 ± 7%	61 ± 6%			
Cc1cccc(-n2c(=O)c3ccccc3c3ccccc3c2=O)c1 [Compound 23, N-(3-methyl)-phenyldiphenimide]	63 ± 6%	78 ± 7%	76 ± 7%			
Cc1ccc(-n2c(=O)c3ccccc3c3ccccc3c2=O)cc1 [Compound 24, N-(4-methyl)-phenyldiphenimide]	60 ± 7%	57 ± 7%	52 ± 6%			
CCc1ccccc1-n1c(=O)c2ccccc2c2ccccc2c1=O [Compound 25, N-(2-ethyl)phenyldiphenimide]	84 ± 7%	82 ± 8%	73 ± 6%			
CCc1cccc(-n2c(=O)c3ccccc3c3ccccc3c2=O)c1 [Compound 26, N-(3-ethyl)-phenyldiphenimide]	66 ± 6%	95 ± 7%	77 ± 7%			
CCc1ccc(-n2c(=O)c3ccccc3c3ccccc3c2=O)cc1 [Compound 27, N-(4-ethyl)-phenyldiphenimide]	70 ± 7%	101 ± 8%	71 ± 5%			
O=c1c2ccccc2c2ccccc2c(=O)n1-c1ccccc1Cl [Compound 28, N-(2-chloro)-phenyldiphenimide]	65 ± 6%	67 ± 6%	64 ± 5%			
O=c1c2ccccc2c2ccccc2c(=O)n1-c1cccc(Cl)c1 [Compound 29, N-(3-chloro)-phenyldiphenimide]	87 ± 7%	81 ± 8%	78 ± 8%			
O=c1c2ccccc2c2ccccc2c(=O)n1-c1ccc(Cl)cc1 [Compound 30, N-(4-chloro)phenyldiphenimide]	64 ± 4%	74 ± 6%	67 ± 5%			
CC(=O)c1ccccc1-n1c(=O)c2ccccc2c2ccccc2c1=O [Compound 31, N-(2-acetyl)-phenyldiphenimide]	58 ± 6%	79 ± 7%	76 ± 6%			
CC(=O)c1cccc(-n2c(=O)c3ccccc3c3ccccc3c2=O)c1 [Compound 32, N-(3-acetyl)-phenyldiphenimide]	58 ± 4%	77 ± 8%	68 ± 6%			
CC(=O)c1ccc(-n2c(=O)c3ccccc3c3ccccc3c2=O)cc1 [Compound 33, N-(4-acetyl)-diphenimide]	70 ± 5%	80 ± 5%	73 ± 5%			
CCOC(=O)C(C)(C)Oc1ccc(Cl)cc1 [Compound C2, clofibrate, reference compound]				88 ± 7%	87 ± 5%	75 ± 5%
